The target in one assay is T1, human EHMT2 913-1193 (Homo sapiens, UniProt Q96KQ7).
T1 construct: recombinant purified human EHMT2 913-1193, Viva; purchased Viva
T1 sequence (Q96KQ7 913-1193): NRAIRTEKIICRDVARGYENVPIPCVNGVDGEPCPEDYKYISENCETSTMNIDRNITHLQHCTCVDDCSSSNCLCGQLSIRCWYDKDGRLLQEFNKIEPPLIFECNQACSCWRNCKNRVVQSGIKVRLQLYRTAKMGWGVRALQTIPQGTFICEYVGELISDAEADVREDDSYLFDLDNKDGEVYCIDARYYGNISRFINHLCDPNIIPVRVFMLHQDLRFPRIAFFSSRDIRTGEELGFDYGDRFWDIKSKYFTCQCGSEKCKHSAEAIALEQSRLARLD
Kind of assay: EHMT2 enzyme assay on histone peptide substrate (EHMT2 PEP). Format: biochemical. The settings on record: Table II; read-out: EHMT2 PEP (IC50 μM). The method, then: Recombinant purified human EHMT2 913-1193 (55 μM) synthesized by Viva was used for all experiments. Biotinylated histone peptides were synthesized by Biopeptide and HPLC-purified to >95% purity. Streptavidin Flashplates and seals were purchased from PerkinElmer and 384 Well V-bottom Polypropylene Plates were from Greiner. ^3H-labeled S-adenosylmethionine (^3H-SAM) was obtained from American Radiolabeled Chemicals with a specific activity of 80 Ci/mmol. Unlabeled SAM and S-adenosylhomocysteine (SAH) were obtained from American Radiolabeled Chemicals and Sigma-Aldrich respectively. Flashplates were washed in a Biotek ELx-405 with 0.1% Tween. 384-well Flashplates and 96-well filter binding plates were read on a TopCount microplate reader (PerkinElmer). Compound serial dilutions were performed on a Freedom EVO (Tecan) and spotted into assay plates using a Thermo Scientific Matrix PlateMate (Thermo Scientific). Reagent cocktails were added by Multidrop Combi (Thermo Scientific).
General Procedure for EHMT2 Enzyme Assay on Histone Peptide Substrate.
10-point curves of test compounds were made on a Freedom EVO (Tecan) using serial 3-fold dilutions in DMSO, beginning at 2.5 mM (final top concentration of compound was 50 μM and the DMSO was 2%). A 1 μL aliquot of the inhibitor dilution series was spotted in a polypropylene 384-well V-bottom plate (Greiner) using a Thermo Scientific Matrix PlateMate (Thermo Scientific). […] Compounds were incubated for 30 minutes with 40 μL per well of 0.031 nM EHMT2 (recombinant purified human EHMT2 913-1193, Viva) in 1× assay buffer (20 mM Bicine [pH 7.5], 0.002% Tween 20, 0.005% Bovine Skin Gelatin and 1 mM TCEP). […] Reactions were incubated for 60 minutes at room temperature and quenched with 10 μL per well of 400 μM unlabeled SAM, then transferred to a 384-well streptavidin Flashplate (PerkinElmer) and washed in a Biotek ELx-405 well washer with 0.1% Tween after 60 minutes. 384-well Flashplates were read on a TopCount microplate reader (PerkinElmer).

The target of another assay is T2, EHMT1 (Homo sapiens, UniProt Q9H9B1).
T2 sequence (Q9H9B1 1-1298): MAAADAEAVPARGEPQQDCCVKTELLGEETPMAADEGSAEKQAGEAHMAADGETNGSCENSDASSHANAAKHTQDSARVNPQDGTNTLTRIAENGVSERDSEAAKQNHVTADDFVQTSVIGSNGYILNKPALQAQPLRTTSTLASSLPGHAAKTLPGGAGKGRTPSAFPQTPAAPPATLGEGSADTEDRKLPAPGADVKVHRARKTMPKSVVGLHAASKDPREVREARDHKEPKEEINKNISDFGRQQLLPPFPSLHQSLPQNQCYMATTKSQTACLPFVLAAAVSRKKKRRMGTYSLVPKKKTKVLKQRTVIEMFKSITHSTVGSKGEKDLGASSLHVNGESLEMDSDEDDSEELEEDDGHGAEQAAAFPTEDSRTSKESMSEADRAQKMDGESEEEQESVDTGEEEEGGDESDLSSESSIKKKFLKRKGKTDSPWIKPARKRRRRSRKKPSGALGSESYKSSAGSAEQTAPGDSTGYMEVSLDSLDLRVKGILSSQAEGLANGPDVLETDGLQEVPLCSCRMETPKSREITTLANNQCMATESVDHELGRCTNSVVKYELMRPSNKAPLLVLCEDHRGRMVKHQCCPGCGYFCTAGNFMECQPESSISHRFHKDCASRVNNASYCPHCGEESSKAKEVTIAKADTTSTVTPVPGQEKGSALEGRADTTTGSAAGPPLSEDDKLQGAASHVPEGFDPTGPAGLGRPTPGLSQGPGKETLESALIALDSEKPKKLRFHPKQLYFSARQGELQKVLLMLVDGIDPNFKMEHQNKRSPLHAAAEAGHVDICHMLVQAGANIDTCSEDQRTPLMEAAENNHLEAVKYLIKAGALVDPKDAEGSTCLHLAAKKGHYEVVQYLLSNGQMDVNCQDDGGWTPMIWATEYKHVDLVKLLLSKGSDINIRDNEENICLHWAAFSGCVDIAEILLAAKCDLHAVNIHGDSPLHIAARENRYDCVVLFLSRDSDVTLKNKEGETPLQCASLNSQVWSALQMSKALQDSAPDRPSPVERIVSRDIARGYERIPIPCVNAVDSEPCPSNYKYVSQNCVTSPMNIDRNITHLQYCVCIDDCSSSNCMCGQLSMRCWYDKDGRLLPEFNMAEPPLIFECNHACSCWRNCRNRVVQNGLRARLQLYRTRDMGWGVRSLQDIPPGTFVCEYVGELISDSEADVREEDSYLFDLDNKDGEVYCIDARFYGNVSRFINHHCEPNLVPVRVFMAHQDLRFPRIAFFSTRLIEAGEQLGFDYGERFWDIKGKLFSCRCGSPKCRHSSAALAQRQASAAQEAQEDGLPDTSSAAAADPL
The assay is described as follows: EHMT1 enzyme assay on peptide substrate (EHMT1 PEP). The note with it: Table II; read-out: EHMT1 PEP (IC50 μM). Format: biochemical.

Consider `COc1ccc(Nc2ccnc(NCC3CCNCC3)c2)cc1OCCCN1CCCC1` [Compound 11, N^4-(4-methoxy-3-(3-(pyrrolidin-1-yl)propoxy)phenyl)-N^2-(piperidin-4-ylmethyl)pyridine-2,4-diamine], for which the half-maximal inhibitory concentration (IC50) on human EHMT2 913-1193 and at EHMT1 was < 0.1 µM throughout.

With `CCCCNc1nccc(NC2CCCCC2)n1` [Compound 58], the 50% inhibitory concentration (IC50) on human EHMT2 913-1193 and on EHMT1 was > 10 µM in each case.

Take `CCCCNc1nccc(NCC2CCOCC2)n1` [Compound 59]: the IC50 on human EHMT2 913-1193 and at EHMT1 was > 10 µM in each case.

`CCCCNc1nccc(NCC2CCNCC2)n1` [Compound 60]: the 50% inhibitory concentration (IC50) at human EHMT2 913-1193 and at EHMT1 was 1 to 10 µM each time.

In the case of `CCCCNc1nccc(NCC2CCCCC2)n1` [Compound 61], the IC50 on human EHMT2 913-1193 and on EHMT1 was > 10 µM throughout.

Regarding `CCCCNc1nccc(NCC2CCOC2)n1` (centres unmarked) [Compound 62], the 50% inhibitory concentration (IC50) at human EHMT2 913-1193 and on EHMT1 was > 10 µM throughout.

Regarding `CCCCNc1nccc(NC2CCOCC2)n1` [Compound 63], the IC50 at human EHMT2 913-1193 and on EHMT1 was > 10 µM each time.

In the case of `CCCCNc1nccc(NC2CCNCC2)n1` [Compound 64], the concentration for half-maximal inhibition (IC50) at human EHMT2 913-1193 and on EHMT1 was > 10 µM in each case.

Take `CCCCNc1nccc(NC2CCN(C(C)=O)CC2)n1` [Compound 65]: the IC50 on human EHMT2 913-1193 and on EHMT1 was > 10 µM each time.

`CCCCNc1nccc(NCC2CCN(C(C)=O)CC2)n1` [Compound 66]: the 50% inhibitory concentration (IC50) at human EHMT2 913-1193 and on EHMT1 was > 10 µM throughout.

Take `CCCCNc1nccc(NCC2CCCO2)n1` (centres unmarked) [Compound 67]: the IC50 at human EHMT2 913-1193 and on EHMT1 was > 10 µM throughout.

Regarding `CCCCNc1nccc(NCC2CCC(N)CC2)n1` (centres unmarked) [Compound 68], the IC50 at human EHMT2 913-1193 and at EHMT1 was > 10 µM each time.

`CCCCNc1nccc(NCC2CCC(NC(C)=O)CC2)n1` (centres unmarked) [Compound 69]: the IC50 on human EHMT2 913-1193 and at EHMT1 was > 10 µM in each case.

In the case of `CCCCNc1nccc(NC2CCC(N)CC2)n1` (centres unmarked) [Compound 70], the half-inhibitory concentration (IC50) on human EHMT2 913-1193 and on EHMT1 was > 10 µM throughout.

On to `CCCCNc1nccc(NC2CCC(NC(C)=O)CC2)n1` (centres unmarked) [Compound 71], for which the half-maximal inhibitory concentration (IC50) at human EHMT2 913-1193 and on EHMT1 was > 10 µM each time.

As to `CCCCNc1ccnc(NCCCC)n1` [Compound 72], the concentration for half-maximal inhibition (IC50) at human EHMT2 913-1193 and on EHMT1 was > 10 µM each time.

`CCCCNc1ccnc(NCCCN2CCCC2)n1` [Compound 73]: the IC50 at human EHMT2 913-1193 and on EHMT1 was > 10 µM in each case.

On to `CCCCNc1nccc(NCCCN2CCCC2)n1` [Compound 74], for which the IC50 at human EHMT2 913-1193 and on EHMT1 was > 10 µM each time.

As for `COCCNc1nccc(N)n1` [Compound 75], the 50% inhibitory concentration (IC50) on human EHMT2 913-1193 and on EHMT1 was > 10 µM each time.

As for `CCCCNc1nccc(NCCCN(C)C)n1` [Compound 76], the IC50 on human EHMT2 913-1193 and at EHMT1 was > 10 µM each time.

Consider `CCCCNc1ccnc(NCCCN)n1` [Compound 77], for which the IC50 on human EHMT2 913-1193 and at EHMT1 was > 10 µM throughout.

Turning to `CCCCNc1ccnc(NCCCN(C)C)n1` [Compound 78], the IC50 on human EHMT2 913-1193 and on EHMT1 was > 10 µM throughout.

With `CCCCNc1nccc(NCCCN)n1` [Compound 79], the 50% inhibitory concentration (IC50) (commonly the concentration that gives 50% inhibition) on human EHMT2 913-1193 is > 10 µM; on EHMT1, 1 to 10 µM.

`CCCCNc1nccc(C(N)=O)n1` [Compound 80]: the IC50 on human EHMT2 913-1193 and on EHMT1 was > 10 µM each time.

Consider `CCCCNc1nccc(C(=O)NC2CCOCC2)n1` [Compound 81], for which the IC50 at human EHMT2 913-1193 and on EHMT1 was > 10 µM each time.

Regarding `CCCCNc1ncc(-c2ccccc2)c(N)n1` [Compound 82], the IC50 at human EHMT2 913-1193 and at EHMT1 was > 10 µM throughout.

As to `CCCCNc1ncc(C#N)c(NCC2CCNCC2)n1` [Compound 83], the half-maximal inhibitory concentration (IC50) on human EHMT2 913-1193 and at EHMT1 was > 10 µM each time.

For the compound `CCCCNc1nc(NCC2CCNCC2)ncc1C#N` [Compound 84], the half-maximal inhibitory concentration (IC50) at human EHMT2 913-1193 and at EHMT1 was > 10 µM each time.

For the compound `CCCCNc1nc(NCC2CCNCC2)cc(C(N)=O)n1` [Compound 85], the concentration for half-maximal inhibition (IC50) at human EHMT2 913-1193 and at EHMT1 was > 10 µM each time.

Take `CCCCNc1nc(C)cc(NCC2CCNCC2)n1` [Compound 86]: the IC50 at human EHMT2 913-1193 and on EHMT1 was 1 to 10 µM in each case.

`CCCCNc1ccnc(NCC2CCN(C)CC2)n1` [Compound 87]: the 50% inhibitory concentration (IC50) at human EHMT2 913-1193 and at EHMT1 was 1 to 10 µM throughout.

As to `CCCCNc1ncc(C(N)=O)c(NCC2CCNCC2)n1` [Compound 89], the half-inhibitory concentration (IC50) at human EHMT2 913-1193 and at EHMT1 was > 10 µM in each case.

Consider `CCCCNc1ncc(C)c(NCC2CCNCC2)n1` [Compound 91], for which the half-maximal inhibitory concentration (IC50) at human EHMT2 913-1193 was > 10 µM; at EHMT1 it was 1 to 10 µM.

On to `O=C(NCCNc1ccnc(NCC2CCNCC2)n1)c1ccc2c(c1)OC(F)(F)O2` [Compound 92], for which the IC50 at human EHMT2 913-1193 and at EHMT1 was > 10 µM throughout.

Consider `O=C(NCCNc1ccnc(NCC2CCNCC2)n1)c1cn(C2CC2)nn1` [Compound 93], for which the IC50 at human EHMT2 913-1193 and on EHMT1 was > 10 µM in each case.

Take `CCCCNc1nc(C#N)cc(NCC2CCNCC2)n1` [Compound 94]: the half-inhibitory concentration (IC50) at human EHMT2 913-1193 and at EHMT1 was 1 to 10 µM each time.

Turning to `O=C(NCCNc1ccnc(NCC2CCNCC2)n1)c1ccc2[nH]c(=O)oc2c1` [Compound 95], the half-maximal inhibitory concentration (IC50) at human EHMT2 913-1193 and at EHMT1 was > 10 µM each time.

Regarding `O=C1Cc2cc(C(=O)NCCNc3ccnc(NCC4CCNCC4)n3)ccc2N1` [Compound 96], the IC50 on human EHMT2 913-1193 and at EHMT1 was 1 to 10 µM in each case.

For the compound `CN1CCC(CNc2nccc(NCCNC(=O)c3ccc4c(c3)CC(=O)N4)n2)CC1` [Compound 97], the IC50 at human EHMT2 913-1193 and at EHMT1 was 1 to 10 µM throughout.

As to `CC(=O)N1CCC(CNc2nccc(NCCNC(=O)c3ccc4c(c3)CC(=O)N4)n2)CC1` [Compound 98], the IC50 on human EHMT2 913-1193 and at EHMT1 was > 10 µM each time.

As for `O=C(NCCNc1ccnc(NCC2CCNCC2)n1)c1ccc(N2CCCC2)cc1` [Compound 99], the IC50 on human EHMT2 913-1193 and at EHMT1 was > 10 µM throughout.

As for `O=C(NCCNc1ccnc(NCC2CCNCC2)n1)c1cccc(N2CCCC2)c1` [Compound 100], the half-inhibitory concentration (IC50) at human EHMT2 913-1193 and on EHMT1 was > 10 µM each time.

On to `CN1CCC(CNc2nccc(NCCNC(=O)c3ccc4c(c3)CC(=O)N4)n2)CC1` [Compound 101], for which the IC50 on human EHMT2 913-1193 is 1 to 10 µM; at EHMT1, > 10 µM.

The record behind these values is patent US20210198277A1, “AMINE-SUBSTITUTED ARYL OR HETEROARYL COMPOUNDS” (Epizyme, Inc., priority 2016, published 2021).
